Results on 5 compounds are retold here after US11141419B1, “Use of iminosugars as prophylactic and therapy against COVID-19 / SARS-CoV-2” (priority 2020, dated 2021).

One data set deals with COVID-19. Conditions: repurposed drug regimens; cited from earlier work.
The subject of another data set is SARS-CoV-2/WA/1 virus. Put plainly: Plaque reduction assay in Vero E6 cells. Type of data set: cell-based. The conditions noted are these: Vero E6 cells pre-treated and overlaid with iminosugar, 40 PFU, 48 hrs, duplicate wells, read-out: IC50 against SARS-CoV-2 (plaque formation).
The test system of data set [1] is Lentiviruses expressing SARS-CoV-2 spike glycoprotein (Wuhan isolate, P.1, B.1.1.7, B.1.351). The class given is cell-based. Conditions: 100 μM iminosugar, 24 hrs pre-treatment, luciferase after 48 hrs.
A further data set has as its system SARS-CoV-2. The class given is cell-based. Conditions: Huh7.0, lower MOI (0.1), 250 μM, three days.
The next data set has as its system Huh7.0 human cells. The experiment in a line: Cell viability (MTS assay) of uninfected Huh7.0 cells. Conditions: various concentrations, three days. On the technique in general: Tetrazolium dyes change colour on reduction, which living cells bring about.
The next data set relates to SARS-CoV-2 virus. Type of data set: cell-based. Conditions: Vero E6, MOI 0.01, 100 μM iminosugar, 24 hrs, supernatant.
[2] abbreviates: Severe acute respiratory syndrome coronavirus 2, Vero C1008.

Read-outs that look alike come from different tables or passages of the source.

As to `CCN(CCO)CCCC(C)Nc1ccnc2cc(Cl)ccc12` (centres unmarked) [hydroxychloroquine], the “effect on hospitalized COVID-19 patients” value with COVID-19 is recorded as “little or no effect”.
For orientation: IC50 means the midpoint of a concentration-inhibition curve. For the compound `C[C@H]1O[C@H](O[C@H]2[C@H](O)[C@@H](O)[C@@H](O[C@H]3[C@H](O)[C@@H](O)C(O)O[C@@H]3CO)O[C@@H]2CO)[C@H](O)[C@@H](O)[C@@H]1N[C@H]1C=C(CO)[C@@H](O)[C@H](O)[C@H]1O` (some centres unmarked) [Acarbose, acarbose], the IC50 in the data set with SARS-CoV-2/WA/1 virus (setting [2]) is 105 µM.
With `OCCN1C[C@H](O)[C@@H](O)[C@H](O)[C@H]1CO` [Miglitol, miglitol], the “pseudotyped SARS-CoV-2 viral entry into human 293t-hACE2 cells” value in data set [1] is reported as “significant decrease”. For the same compound, the cell survival entry in the data set on SARS-CoV-2 is recorded as “completely restored”. For the same compound, in the data set with Huh7.0 human cells, the “toxicity to human cells” value is “without toxicity”. Further, the “SARS-CoV-2 viral RNA production / viral genome copy number (N1 gene PCR)” value in the data set on SARS-CoV-2 virus is on record as “significantly reduced”. For the same compound, in the data set with SARS-CoV-2/WA/1 virus (setting [2]), the IC50 is 135 µM.
Turning to `O[C@H]1[C@H](O)[C@@H](O)CN2CC[C@H](O)[C@H]12` [Castanospermine, castanospermine], in data set [1], the “pseudotyped SARS-CoV-2 viral entry into human 293t-hACE2 cells” value is on record as “significant decrease”. For the same compound, the “SARS-CoV-2 viral RNA production / viral genome copy number (N1 gene PCR)” value in the data set with SARS-CoV-2 virus was “significantly reduced”. In the data set with SARS-CoV-2/WA/1 virus, the IC50 stood at 91 µM.
For `Cc1cccc(C)c1OCC(=O)N[C@@H](Cc1ccccc1)[C@@H](O)C[C@H](Cc1ccccc1)NC(=O)[C@H](C(C)C)N1CCCNC1=O` [lopinavir], in the data set on COVID-19, the “effect on hospitalized COVID-19 patients” value was “little or no effect”.
